Data as given in PubChem BioAssay (NCI).
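Five compound concentrations were applied to cells in 96-well plates for 48 hours; endpoints were derived by simple linear interpolation of the resulting dose-response curve. The concentration for 50% growth inhibition is given as GI50. TGI is the concentration that stops growth completely.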

Legend:
Experiment in all cases: growth of human tumour cells (NCI), 48 h
786-0 renal = tested on: 786-0 renal
A498 renal = tested on: A498 renal
A549 NSCLC = tested on: A549 NSCLC
ACHN renal = tested on: ACHN renal
BT-549 breast = tested on: BT-549 breast
CAKI-1 renal = tested on: CAKI-1 renal
CCRF-CEM leukemia = tested on: CCRF-CEM leukemia
COLO 205 colon = tested on: COLO 205 colon
DU-145 prostate = tested on: DU-145 prostate
EKVX NSCLC = tested on: EKVX NSCLC
HCC-2998 colon = tested on: HCC-2998 colon
HCT-116 colon = tested on: HCT-116 colon
HCT-15 colon = tested on: HCT-15 colon
HL-60(TB) leukemia = tested on: HL-60(TB) leukemia
HOP-62 NSCLC = tested on: HOP-62 NSCLC
HOP-92 NSCLC = tested on: HOP-92 NSCLC
HS 578T breast = tested on: HS 578T breast
HT29 colon = tested on: HT29 colon
IGROV1 ovarian = tested on: IGROV1 ovarian
K-562 leukemia = tested on: K-562 leukemia
KM12 colon = tested on: KM12 colon
LOX IMVI melanoma = tested on: LOX IMVI melanoma
M14 melanoma = tested on: M14 melanoma
MALME-3M melanoma = tested on: MALME-3M melanoma
MCF7 breast = tested on: MCF7 breast
MDA-MB-231 breast = tested on: MDA-MB-231 breast
MDA-MB-435 = tested on: MDA-MB-435
MOLT-4 leukemia = tested on: MOLT-4 leukemia
NCI-H226 lung = tested on: NCI-H226 lung
NCI-H23 lung = tested on: NCI-H23 lung
NCI-H460 lung = tested on: NCI-H460 lung
NCI-H522 lung = tested on: NCI-H522 lung
NCI/ADR-RES ovarian = tested on: NCI/ADR-RES ovarian
OVCAR-3 ovarian = tested on: OVCAR-3 ovarian
OVCAR-4 ovarian = tested on: OVCAR-4 ovarian
OVCAR-5 ovarian = tested on: OVCAR-5 ovarian
OVCAR-8 ovarian = tested on: OVCAR-8 ovarian
PC-3 prostate = tested on: PC-3 prostate
RPMI-8226 leukemia = tested on: RPMI-8226 leukemia
RXF 393 renal = tested on: RXF 393 renal
SF-268 CNS = tested on: SF-268 CNS
SF-295 CNS = tested on: SF-295 CNS
SF-539 CNS = tested on: SF-539 CNS
SK-MEL-2 melanoma = tested on: SK-MEL-2 melanoma
SK-MEL-28 melanoma = tested on: SK-MEL-28 melanoma
SK-MEL-5 melanoma = tested on: SK-MEL-5 melanoma
SK-OV-3 ovarian = tested on: SK-OV-3 ovarian
SN12C renal = tested on: SN12C renal
SNB-19 CNS = tested on: SNB-19 CNS
SNB-75 CNS = tested on: SNB-75 CNS
SR leukemia = tested on: SR leukemia
SW-620 colon = tested on: SW-620 colon
T-47D breast = tested on: T-47D breast
TK-10 renal = tested on: TK-10 renal
U251 CNS = tested on: U251 CNS
UACC-257 melanoma = tested on: UACC-257 melanoma
UACC-62 melanoma = tested on: UACC-62 melanoma
UO-31 renal = tested on: UO-31 renal

## Cc1ccc(-c2cc(O)c(-c3ccc(C)cc3C)cc2O)c(C)c1
786-0 renal
  GI50: 7.65 µM
  TGI: 21.2 µM
A498 renal
  GI50: 5.32 µM
  TGI: 18 µM
A549 NSCLC
  GI50: 3.8 µM
  TGI: 21.6 µM
ACHN renal
  GI50: 8.17 µM
  TGI: 23 µM
BT-549 breast
  GI50: 7.56 µM
  TGI: 26.4 µM
CAKI-1 renal
  GI50: 3.41 µM
  TGI: 34.3 µM
CCRF-CEM leukemia
  GI50: 3.65 µM
  TGI: > 100 µM
COLO 205 colon
  GI50: 10.2 µM
  TGI: 24.6 µM
DU-145 prostate
  GI50: 11.2 µM
  TGI: 28.2 µM
EKVX NSCLC
  GI50: 5.45 µM
  TGI: 37.3 µM
HCC-2998 colon
  GI50: 9.37 µM
  TGI: 21.9 µM
HCT-116 colon
  GI50: 1.17 µM
  TGI: 13.7 µM
HCT-15 colon
  GI50: 0.54 µM
  TGI: 18.9 µM
HL-60(TB) leukemia
  GI50: 10.3 µM
  TGI: > 100 µM
HOP-62 NSCLC
  GI50: 11.2 µM
  TGI: 25.9 µM
HOP-92 NSCLC
  GI50: 5.44 µM
  TGI: 28.9 µM
HS 578T breast
  GI50: 12.7 µM
  TGI: 61.9 µM
HT29 colon
  GI50: 4.73 µM
  TGI: 17.1 µM
IGROV1 ovarian
  GI50: 8.25 µM
  TGI: 39 µM
K-562 leukemia
  GI50: 5.1 µM
  TGI: > 100 µM
KM12 colon
  GI50: 8.2 µM
  TGI: 26.8 µM
LOX IMVI melanoma
  GI50: 1.92 µM
  TGI: 17.2 µM
M14 melanoma
  GI50: 6.58 µM
  TGI: 19.9 µM
MALME-3M melanoma
  GI50: 12.9 µM
  TGI: 28.2 µM
MCF7 breast
  GI50: 3.74 µM
  TGI: 23.1 µM
MDA-MB-231 breast
  GI50: 3.94 µM
  TGI: 21 µM
MDA-MB-435
  GI50: 6.98 µM
  TGI: 45.1 µM
MOLT-4 leukemia
  GI50: 6.23 µM
  TGI: > 100 µM
NCI-H226 lung
  GI50: 3.11 µM
  TGI: 19.2 µM
NCI-H23 lung
  GI50: 7.43 µM
  TGI: 26.2 µM
NCI-H460 lung
  GI50: 0.923 µM
  TGI: 15.2 µM
NCI-H522 lung
  GI50: 4.67 µM
  TGI: 16.3 µM
NCI/ADR-RES ovarian
  GI50: 4.5 µM
  TGI: 32.9 µM
OVCAR-3 ovarian
  GI50: 7.17 µM
  TGI: 22.4 µM
OVCAR-4 ovarian
  GI50: 4.27 µM
  TGI: 18.5 µM
OVCAR-5 ovarian
  GI50: 18 µM
  TGI: 33.5 µM
OVCAR-8 ovarian
  GI50: 4.04 µM
  TGI: 22.2 µM
PC-3 prostate
  GI50: 3.95 µM
  TGI: 57.1 µM
RPMI-8226 leukemia
  GI50: 4.93 µM
  TGI: 55 µM
RXF 393 renal
  GI50: 5.6 µM
  TGI: 19.7 µM
SF-268 CNS
  GI50: 6.97 µM
  TGI: 30.6 µM
SF-295 CNS
  GI50: 6.96 µM
  TGI: 36.1 µM
SF-539 CNS
  GI50: 10.7 µM
  TGI: 23.2 µM
SK-MEL-2 melanoma
  GI50: 15.4 µM
  TGI: 30.1 µM
SK-MEL-28 melanoma
  GI50: 10.8 µM
  TGI: 25.5 µM
SK-MEL-5 melanoma
  GI50: 1.11 µM
  TGI: 10.2 µM
SK-OV-3 ovarian
  GI50: 11 µM
  TGI: 27.3 µM
SN12C renal
  GI50: 5.38 µM
  TGI: 18.8 µM
SNB-19 CNS
  GI50: 10.9 µM
  TGI: 30.9 µM
SNB-75 CNS
  GI50: 5.46 µM
  TGI: 19.7 µM
SR leukemia
  GI50: 3.57 µM
  TGI: 74.9 µM
SW-620 colon
  GI50: 5.64 µM
  TGI: 18.5 µM
T-47D breast
  GI50: 5.24 µM
  TGI: 42.9 µM
TK-10 renal
  GI50: 11.7 µM
  TGI: 42.2 µM
U251 CNS
  GI50: 2.32 µM
  TGI: 17.3 µM
UACC-257 melanoma
  GI50: 5.81 µM
  TGI: 19.1 µM
UACC-62 melanoma
  GI50: 4.23 µM
  TGI: 19.8 µM
UO-31 renal
  GI50: 4.96 µM
  TGI: 22.4 µM

## O=Nc1c(-c2c(O)[nH]c3ccc(Br)cc23)[nH]c2ccccc12
786-0 renal
  GI50: 3.25 µM
  TGI: 14.1 µM
A498 renal
  GI50: 3.7 µM
  TGI: 8.07 µM
A549 NSCLC
  GI50: 3.21 µM
  TGI: > 100 µM
ACHN renal
  GI50: 2.25 µM
  TGI: 7.69 µM
BT-549 breast
  GI50: 4.57 µM
  TGI: 20.2 µM
CAKI-1 renal
  GI50: 3.44 µM
  TGI: > 100 µM
CCRF-CEM leukemia
  GI50: 3.22 µM
  TGI: 16.8 µM
COLO 205 colon
  GI50: 2.82 µM
  TGI: 13.9 µM
DU-145 prostate
  GI50: 3.01 µM
  TGI: 11.8 µM
EKVX NSCLC
  GI50: 3 µM
  TGI: 15.5 µM
HCT-15 colon
  GI50: 2.72 µM
  TGI: 8.4 µM
HL-60(TB) leukemia
  GI50: 3.38 µM
  TGI: 6.22 µM
HOP-62 NSCLC
  GI50: 4.4 µM
  TGI: 13.8 µM
HOP-92 NSCLC
  GI50: 6.25 µM
  TGI: 45.1 µM
HS 578T breast
  GI50: 3.03 µM
  TGI: 10.2 µM
HT29 colon
  GI50: 8.3 µM
  TGI: > 100 µM
IGROV1 ovarian
  GI50: 2.5 µM
  TGI: > 100 µM
K-562 leukemia
  GI50: 2 µM
  TGI: 4.87 µM
KM12 colon
  GI50: 1.14 µM
  TGI: 5.2 µM
LOX IMVI melanoma
  GI50: 2.18 µM
  TGI: 11 µM
MALME-3M melanoma
  GI50: 21.8 µM
  TGI: > 100 µM
MCF7 breast
  GI50: 2.21 µM
  TGI: 8.48 µM
MDA-MB-231 breast
  GI50: 3.55 µM
  TGI: 21.8 µM
MDA-MB-435
  GI50: 5.47 µM
  TGI: > 100 µM
MOLT-4 leukemia
  GI50: 2.93 µM
  TGI: 7.21 µM
NCI-H226 lung
  GI50: 3.89 µM
  TGI: 16.7 µM
NCI-H23 lung
  GI50: 3.13 µM
  TGI: 12.8 µM
NCI-H460 lung
  GI50: 2.4 µM
  TGI: 5.99 µM
NCI-H522 lung
  GI50: 3.35 µM
  TGI: 47.6 µM
NCI/ADR-RES ovarian
  GI50: 4.24 µM
  TGI: 63.4 µM
OVCAR-3 ovarian
  GI50: 4.03 µM
  TGI: 67.3 µM
OVCAR-4 ovarian
  GI50: 5.94 µM
  TGI: 74.4 µM
OVCAR-5 ovarian
  GI50: 5.14 µM
  TGI: 16.9 µM
OVCAR-8 ovarian
  GI50: 4.29 µM
  TGI: > 100 µM
PC-3 prostate
  GI50: 3.38 µM
  TGI: 78.9 µM
RPMI-8226 leukemia
  GI50: 3.56 µM
  TGI: 25.5 µM
RXF 393 renal
  GI50: 3.62 µM
  TGI: > 100 µM
SF-268 CNS
  GI50: 3.75 µM
  TGI: 22.6 µM
SF-295 CNS
  GI50: 9.8 µM
  TGI: 54.1 µM
SF-539 CNS
  GI50: 2.62 µM
  TGI: 7.47 µM
SK-MEL-2 melanoma
  GI50: 2.65 µM
  TGI: > 100 µM
SK-MEL-28 melanoma
  GI50: 9.12 µM
  TGI: > 100 µM
SK-MEL-5 melanoma
  GI50: 1.24 µM
  TGI: 2.53 µM
SK-OV-3 ovarian
  GI50: 5.22 µM
  TGI: 77.3 µM
SN12C renal
  GI50: 4.09 µM
  TGI: > 100 µM
SNB-19 CNS
  GI50: 7.99 µM
  TGI: > 100 µM
SNB-75 CNS
  GI50: 7.58 µM
  TGI: 28.3 µM
SR leukemia
  GI50: 2.12 µM
  TGI: 5.62 µM
SW-620 colon
  GI50: 3.64 µM
  TGI: 9.41 µM
T-47D breast
  GI50: 12.1 µM
  TGI: > 100 µM
TK-10 renal
  GI50: 3.77 µM
  TGI: > 100 µM
U251 CNS
  GI50: 4.83 µM
  TGI: 23.1 µM
UACC-257 melanoma
  GI50: 15 µM
  TGI: > 100 µM
UACC-62 melanoma
  GI50: 4.96 µM
  TGI: 15.1 µM
UO-31 renal
  GI50: 2.81 µM
  TGI: > 100 µM
